Experimental data from PMC12356476, “Transferrin conjugated pH/NIR-responsive black phosphorus nanoplatform: A novel multimodal approach for breast cancer theranostics” (International Journal of Pharmaceutics: X, 2025).
Converted amounts (≈) assume the structure as drawn.

Columns and labels:
[1] = tested on: 4 T1 cells; assay: Cellular uptake by flow cytometry; assay type: cell-based, murine; details: ~5 μg/mL, no irradiation
Protocol: To understand the cellular uptake of nanoformulations, flow cytometry was employed. 4 T1 cells were seeded into 6-well plates and allowed to adhere for 24 h prior to treatment. […] Followed by the removal of culture medium after 2 h of treatment, test samples were added, and the laser groups were exposed to NIR-II 808 nm laser for 5 min and kept in incubator for 2 h. The plates were taken and added with trypsin for the detachment of 4 T1 cells. It was then collected, centrifuged to separate free DOX and BP-based nanoformulation, and analyzed using a flow cytometer (BD Accuri). Untreated 4 T1 cells were used as a control group.

[2] = tested on: 4 T1-breast tumour bearing BALB/c mice; assay: Pharmacodynamic study (antitumour efficacy); assay type: in vivo; details: i.v., 5 mg/kg eq. to DOX, 14 days
Protocol: Female BALB/c mice were given a subcutaneous injection of 4 T1 cells (1.5 × 10^6 cells) in 100 μL of cold PBS, into the dorsal flank. The breast tumour appeared in 10–14 days while the mice were under close observation. Using a vernier caliper, the length and width were measured, and the tumour volume was measured. When the tumour volume reached about 75 to 100 mm^3, the mice were grouped randomly to 10 groups (n = 3):
Group I: Saline (i v injection).
Group II: Saline + NIR (i v injection).
Group III: BPNSs (Dose: 5 mg/Kg) (i v injection).
Group IV: BPNSs + NIR (Dose: 5 mg/Kg) (i v injection).
After 2 h of injection, the laser irradiation groups were exposed to 808 nm NIR laser (1 W/cm^2) for 5 min. The starting day of the treatment was considered as 0th day and checked for body weight in every day and tumour volume in every 2 days. The following equation was used for the measurement of tumour volume (V): Volumemm^3=Width^2XLength/2
(§1) On the last day of the treatment (Day 14), the BALB/c mice were euthanized by cervical dislocation and major organs were collected, washed and fixed with 4 % paraformaldehyde for Hematoxylin and Eosin (H&E) staining.

[3] = In vivo pharmacokinetics after i.v. injection; details: 5 mg/kg DOX equivalent, BALB/c mice, plasma, Mean ± SD, n = 3
Protocol: Female BALB/c mice (6–8 weeks old, 18–25 g) were obtained from a certified animal supplier and used for the study. Prior to the start of the experiment, all animals were housed under standard laboratory conditions (12-h light/dark cycle, temperature 22 ± 2 °C, relative humidity 50–60 %) with ad libitum access to food and water. A two-week acclimatization period was provided to allow the animals to adjust to the laboratory environment. […] Mice were randomly assigned to experimental groups (n = 3 per group), and all efforts were made to minimize suffering. The allocation and data collection were conducted in a blinded manner wherever applicable. No animals were excluded from the analysis unless stated otherwise.
Blood sample was collected in EDTA solution containing tubes at intervals ranging from 5 min to 48 h post-administration and then centrifuged to separate the plasma ([Zeng et al., 2019]).

[4] = tested on: 4 T1-breast tumour bearing BALB/c mice; assay: Biodistribution study by in vivo fluorescence imaging; details: i.v., imaging 0.5 to 36 h post-injection
From the text: In vivo biodistribution study of plain DOX, and BP-DOX@PDA-TF were monitored with an in vivo imaging system. […] Using IVIS® containing 620 nm and 780 nm filters respectively for excitation and emission, tumour accumulation trends were examined across various time periods following injection.

[5] = tested on: 4 T1-breast tumour bearing BALB/c mice; assay: Histopathological analysis (H&E) of tumour tissues and other organs; assay type: in vivo; set-up: key to Tumour cells / Necrosed area / Malignant features like nuclear pleomorphism, hyperchromatism / inflammation / Muscle invasion: -: Nil; + few; ++ Many; +++ Abundant; details: for Malignant features like nuclear pleomorphism, hyperchromatism / Mitotic count/10HPF / Muscle invasion / Necrosed area / Tumour cells / inflammation: tumour tissue, 14 days
Protocol: as §1
Three BALB/c mice from each group were sacrificed after 14 days of treatment. The tissues (liver, spleen, lung, heart, kidney, and breast tumour) were isolated and fixed with 10 % formalin for 24 to 48 h. The tissue slides were examined using the LX-500 LED trinocular Research microscope, and pictures were captured using the MiaCam CMOS AR 6pro microscope camera coupled to image AR pro software. The slides were graded according to tumour cells, necrosed areas, malignant features like nuclear pleomorphism and hyperchromatism, inflammation, muscle invasion and mitotic count counted in 10 consecutive high-power fields (HPFs).

[6] = tested on: chorioallantoic membrane (CAM) of fertilized chicken eggs; assay: Chorioallantoic membrane (CAM) assay; assay type: in vivo; details: 200 μL applied on day 8, observed at 8 and 24 h; DOX equivalent 200 μg
Protocol: The CAM assay is a method used to assess the effects of chemical agents/formulations on the developing, highly vascularized CAM. Fertilized chicken eggs were obtained, disinfected with 70 % ethanol, and incubated in a humidified environment. The eggs were kept horizontal and regularly rotated. […] Lenalidomide was considered as positive and normal saline (NS) as negative control. Following application, the egg's cavity was resealed with scotch tape and returned to the incubator. Changes in the blood vessel morphology were examined at 8 and 24 h after incubation ([Raychaudhuri et al., 2021]).

[7] = tested on: 4 T1 cells; assay: In vitro PTT study (MTT with 808 nm NIR irradiation); assay type: cell-based, murine; details: 4 T1 tumour cellular toxicity after 48 h; 808 nm laser 1.0 W/cm^2 for 10 min
Protocol: Based on the results of cytotoxicity in 4 T1 cells produced by the test compounds, five concentrations were selected (100, 10, 1, 0.1, 0.001) to evaluate the extent of cytotoxicity in the presence of NIR radiation of 808 nm. 4 T1 cell line was seeded and incubated for 24 h. After refreshing the medium, the wells were added with samples at 37 °C for 4 h, and irradiated with 808 nm laser (1.0 W/cm^2) for 10 mins incubated till 48 h ([Phan et al., 2017]; [Xu et al., 2021]).
Absorbance data were observed, and percentage tumour cell growth inhibition was measured using the following formula: Percentage growth inhibition=Absorbance of Blank−Absorbance of test/Absorbance of BlankX100

[8] = tested on: 4T1 tumour bearing BALB/c mice; assay: Blood (haematological) parameters estimation; assay type: in vivo
Protocol: A total of about 100 μL of blood was collected from the retroorbital route and collected into a tube with 10 μL of EDTA for a complete blood count such as RBC, WBC, platelets and hemoglobin analysis using Nihon Kohden blood analyzer (celltac alpha-MEK-6550, India).

[9] = tested on: 4 T1 cells; assay: MTT cytotoxicity assay without irradiation; assay type: cell-based, murine; details: 4 T1 tumour cellular toxicity after 48 h
Protocol: The 4 T1 cell line, a murine breast tumour cell line derived from BALB/cf3H mice, was obtained from Elabsciences, Inc. The cytotoxicity of BP-based nanoformulation were evaluated using MTT assay. […] After 48 h, media was discarded and added with 50 μL of MTT reagent (2 mg/ml). The samples were then kept for 4 h of incubation and added with 50 μL DMSO to solubilize the formazan crystals. OD (optical density) was evaluated at 540 nm in a microplate reader (ELx800). Absorbance data were observed, and percentage tumour cell growth inhibition was measured using the following formula: Percentage growth inhibition=Absorbance of Blank−Absorbance of test/Absorbance of BlankX100

[10] = after 14 days of treatment and NIR Irradiation
[11] = after 14 days of treatment, no NIR irradiation

Question: Which results are given for `COc1cccc2c1C(=O)c1c(O)c3c(c(O)c1C2=O)C[C@@](O)(C(=O)CO)C[C@@H]3O[C@H]1C[C@H](N)[C@H](O)[C@H](C)O1` [DOX, Doxorubicin]?
Answer: cellular uptake (DOX fluorescence intensity) [1]: greater fluorescence intensity than BP-based NPs; breast tumour growth suppression [2]: failed to efficiently suppress the breast tumour growth; AUC(0-t) [3]: 2976.15 ± 1191.277 ng·h/mL; AUC(0-∞) [3]: 3168.98 ± 1086.246 ng·h/mL; Cmax [3]: 469.73 ± 93.78 ng/mL; Ke [3]: 0.141 ± 0.05 h⁻¹; T max [3]: 4.98 ± 0 min; t1/2 [3]: 5.47 ± 2.15 h; fluorescence signal of DOX at the tumour region [4]: significantly reduced signal; liver pathology ([5]; H&E, 14 days of treatment): severe hypertrophy and liver congestion; Malignant features like nuclear pleomorphism, hyperchromatism ([5]; NIR irradiated): +++; Mitotic count/10HPF ([5]; NIR irradiated): 23 /10HPF; Muscle invasion ([5]; NIR irradiated): -; Necrosed area ([5]; NIR irradiated): +++; Tumour cells ([5]; NIR irradiated): +++; inflammation ([5]; NIR irradiated): -; Malignant features like nuclear pleomorphism, hyperchromatism ([5]; NIR non-irradiated): ++; Mitotic count/10HPF ([5]; NIR non-irradiated): 4 /10HPF; Muscle invasion ([5]; NIR non-irradiated): -; Necrosed area ([5]; NIR non-irradiated): -; Tumour cells ([5]; NIR non-irradiated): +; inflammation ([5]; NIR non-irradiated): +++; toxicity to the CAM (coagulation, hemorrhage, vascular morphology, embryotoxicity) [6]: notable sign of toxicity such as coagulation, bleeding, and embryo toxicity; IC50 value, NIR Irradiated [7]: 1.58 µg/mL (≈ 2.91 µM); HCT [8, 10]: 46.76±4.31%; HGB [8, 10]: 13.88 ± 1.28 g/dL; MCH [8, 10]: 16.35 ± 1.51 pg; MCV [8, 10]: 50.93 ± 3.10 fL; MPV [8, 10]: 6.39 ± 0.59 fL; PDW [8, 10]: 14.34 ± 1.32 fL; PLT [8, 10]: 924.2±85.27 ×10^3/µL; RBC [8, 10]: 7.8±1.31 ×10^6/µL; RDW‐CV [8, 10]: 13.61±1.26%; RDW‐SD [8, 10]: 35.71 ± 3.29 fL; WBC [8, 10]: 8.77±0.81 10^3/µL; HCT [8, 11]: 42.69±4.36%; HGB [8, 11]: 14.57 ± 0.42 g/dL; MCH [8, 11]: 16.27 ± 1.64 pg; MCV [8, 11]: 52.77 ± 4.81 fL; MPV [8, 11]: 6.37 ± 1.21 fL; PDW [8, 11]: 14.77 ± 2.06 fL; PLT [8, 11]: 940±75.19 ×10^3/µL; RBC [8, 11]: 9.39±1.2 ×10^6/µL; RDW‐CV [8, 11]: 13.77±0.38%; RDW‐SD [8, 11]: 38.17 ± 3.09 fL; WBC [8, 11]: 9.73±1.5 10^3/µL; IC50 value, Non NIR Irradiated [9]: 2.84 µg/mL (≈ 5.23 µM)
